Data published in ChEMBL document CHEMBL3779822, “Indolyl-3-ethanone-α-thioethers: A promising new class of non-toxic antimalarial agents” (Eur J Med Chem, 2016).
pIC50: −log10 of the molar value.

Key:
Plasmodium falciparum = assay: Antiplasmodial activity against Plasmodium falciparum 3D7 infected in human erythrocytes assessed as inhibition of parasite growth after 48 hrs by parasite lactate dehydrogenase assay; type: functional, organism-based; details: 3D7, 48 h
HeLa = assay: Growth inhibition of human HeLa cells after 48 hrs by resazurin assay; type: cell-based
[1] = Selectivity index, ratio if IC50 for human HeLa cells to IC50 for Plasmodium falciparum 3D7; type: functional

pIC50 (HeLa) | Compound | pIC50 (Plasmodium falciparum) | Ratio IC50 [1]
< 3.30 | O=C(CNc1ccccc1)c1c[nH]c2ccccc12 | 4.14 | 7
4.80 | O=C(CNc1ccc(Cl)cc1)c1c[nH]c2ccccc12 | 4.54 | 0.6
4.25 | O=C(CSc1ccc(Br)cc1)c1c[nH]c2c(I)cccc12 | 4.35 | 1
< 3.30 | O=C(CSc1ccc(Br)cc1)c1c[nH]c2ccc(Cl)cc12 | 7.05 | 5556
< 3.30 | O=C(CSc1ccc(Br)cc1)c1c[nH]c2cc(Cl)ccc12 | 5.55 | 179
< 3.30 | O=C(CSCc1ccc(F)cc1)c1c[nH]c2ccccc12 | 4.24 | 9
< 3.30 | O=C(COc1ccc(Cl)cc1)c1c[nH]c2ccccc12 | 5.74 | 278
< 3.30 | O=C(CSc1cccc(Cl)c1)c1c[nH]c2ccccc12 | 4.36 | 11
< 3.30 | O=C(CSc1ccc(Cl)cc1)c1c[nH]c2ccccc12 | 5.85 | 357
< 3.30 | Cn1cc(C(=O)CSc2ccc(Br)cc2)c2ccccc21 | 4.82 | 33
< 3.30 | O=C(CSCc1ccccc1)c1c[nH]c2ccccc12 | 3.88 | 4
4.44 | Nc1ccc(SCC(=O)c2c[nH]c3ccccc23)cc1 | 4.70 | 2
< 3.30 | Cc1ccccc1SCC(=O)c1c[nH]c2ccccc12 | 4.92 | 42
< 3.30 | O=C(CSCc1ccc(Br)cc1)c1c[nH]c2ccccc12 | < 3.30 | –
< 3.30 | Cc1ccc(SCC(=O)c2c[nH]c3ccccc23)cc1 | 4.72 | 26
< 3.30 | O=C(CSc1ccc(Br)cc1)c1c[nH]c2cc(F)ccc12 | 5.89 | 385
< 3.30 | O=C(CSc1ccc(Br)cc1)c1c[nH]c2c(F)cccc12 | 5.62 | 208
3.55 | O=C(CSc1ccccc1)c1c[nH]c2ccccc12 | 4.54 | 10

pIC50 (HeLa) | Compound | pIC50 (Plasmodium falciparum) | Ratio IC50 [1]
< 3.30 | O=C(COc1ccccc1)c1c[nH]c2ccccc12 | < 3.30 | –
< 3.30 | O=C(CSCc1ccc(Cl)cc1)c1c[nH]c2ccccc12 | < 3.30 | –
< 3.30 | O=C(CSc1ccc(Br)cc1)c1c[nH]c2cc(Br)c(F)cc12 | 4.72 | 26
< 3.30 | O=C(CSc1ccc(Br)cc1)c1c[nH]c2cc(Cl)c(F)cc12 | 4.92 | 42
< 3.30 | O=C(CSc1ccc(Br)cc1)c1c[nH]c2ccc(Br)cc12 | 6.92 | 4167
< 3.30 | CC(C)(C)c1ccc(SCC(=O)c2c[nH]c3ccccc23)cc1 | 5.05 | 56
< 3.30 | O=C(CSc1cccc(Br)c1)c1c[nH]c2ccccc12 | 3.97 | 5
< 3.30 | O=C(CSc1cccc(F)c1)c1c[nH]c2ccccc12 | 5.41 | 128
4.12 | CC(SCC(=O)c1c[nH]c2ccccc12)c1ccccc1 (stereo not drawn) | 3.91 | 1
4.85 | O=C(CSCCc1ccccc1)c1c[nH]c2ccccc12 | 5.11 | 2
4.22 | CN(C)c1ccc(SCC(=O)c2c[nH]c3ccccc23)cc1 | 3.98 | 1
< 3.30 | O=C(CSc1ccccc1Cl)c1c[nH]c2ccccc12 | < 3.30 | –
4.46 | O=C(CSCc1cccc(Br)c1)c1c[nH]c2ccccc12 | 4.89 | 3
< 3.30 | O=C(CSc1ccc(Br)cc1)c1c[nH]c2ccccc12 | 5.89 | 385
3.65 | Cc1cc(Br)c2[nH]cc(C(=O)CSc3ccc(Br)cc3)c2c1 | 5.74 | 124
< 3.30 | O=C(CSc1ccc([N+](=O)[O-])cc1)c1c[nH]c2ccccc12 | 6.62 | 2083
< 3.30 | O=C(CSc1ccc(F)cc1)c1c[nH]c2ccccc12 | 5.77 | 294
< 3.30 | O=C(CSc1ccc(Br)cc1)c1c[nH]c2cc(Br)ccc12 | 3.55 | 2

Compound | pIC50 (HeLa) | pIC50 (Plasmodium falciparum) | Ratio IC50 [1]
CC[C@H]1CN2CCc3cc(OC)c(OC)cc3[C@@H]2C[C@@H]1C[C@H]1NCCc2cc(OC)c(OC)cc21 [EMETINE] | 6.43 | – | –
O=C(CSc1ccc(Br)cc1)c1cn(Cc2ccccc2)c2ccccc12 | < 3.30 | 5.57 | 185
